{"source": "patent US20170007561A1", "about": "“CONTEMPORANEOUS, HETEROGENEOUSLY-ORIENTED, MULTI-TARGETED THERAPEUTIC MODIFICATION AND/OR MODULATION OF DISEASE BY ADMINISTRATION OF SULFUR-CONTAINING, AMINO ACID-SPECIFIC SMALL MOLECULES” (BioNumerik Pharmaceuticals, Inc., priority 2014, published 2017)", "key": {"[1]": {"system": "Trx/TrxR system in human cancer cells", "settings": "cited from earlier work"}, "[2]": {"target": "T1, bovine TrxR (Bos taurus, UniProt O62768)", "T1 construct": "purchased American Diagnostica", "T1 sequence (O62768 1-499)": "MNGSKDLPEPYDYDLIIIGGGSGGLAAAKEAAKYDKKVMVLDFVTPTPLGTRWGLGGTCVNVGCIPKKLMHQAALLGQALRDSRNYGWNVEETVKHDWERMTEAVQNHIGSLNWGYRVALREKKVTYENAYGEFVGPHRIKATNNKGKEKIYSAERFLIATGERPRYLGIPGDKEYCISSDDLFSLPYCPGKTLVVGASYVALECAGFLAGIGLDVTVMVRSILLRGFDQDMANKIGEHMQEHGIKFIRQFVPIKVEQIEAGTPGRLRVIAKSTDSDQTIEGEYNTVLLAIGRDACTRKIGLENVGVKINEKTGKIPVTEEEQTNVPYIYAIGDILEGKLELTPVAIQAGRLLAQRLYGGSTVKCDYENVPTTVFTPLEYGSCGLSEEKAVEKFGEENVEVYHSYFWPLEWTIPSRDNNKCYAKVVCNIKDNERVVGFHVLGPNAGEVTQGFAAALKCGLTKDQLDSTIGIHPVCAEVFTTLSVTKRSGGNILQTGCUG", "experiment": "TrxR NADPH oxidation assay without Trx (Reaction A)", "type": "biochemical", "settings": "TrxR alone + NADPH, no Trx; disulfide 0.5 mM"}, "[3]": {"target": "T2, TrxR/Trx system (Homo sapiens, UniProt P10599)", "T2 construct": "purchased Sigma (Trx); American Diagnostica (bovine TrxR)", "T2 sequence (P10599 1-105)": "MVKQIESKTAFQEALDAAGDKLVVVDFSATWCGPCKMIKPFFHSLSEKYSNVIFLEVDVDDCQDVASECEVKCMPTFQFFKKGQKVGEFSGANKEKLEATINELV", "experiment": "TrxR/Trx NADPH oxidation assay", "type": "biochemical", "settings": "increasing concentrations of test substance", "excerpt": "(Note: error bars are small and may be obscured by the symbols). […] (Note: error bars were omitted but assays were run in quadruplicate with typical errors of 5-8% between individual replicates). […] Panel D: Initial velocity reaction rates corresponding to progress curves shown in Panel C. With time, Trx-mesna and Trx-GSH are converted back to apo-Trx by Trx reductase (see also, FIG. 69, Panel E)."}, "[4]": {"system": "mammalian thioredoxin reductase (TrxR)", "settings": "cited from earlier work"}, "[5]": {"system": "bovine brain microtubule protein (α-/β-tubulin)", "experiment": "Microtubule protein polymerization assay (OD350)", "type": "biochemical", "settings": "for effect on GTP promoted microtubule protein polymerization: mesna, even at 10 mM"}, "[6]": {"settings": "read-out: Cmax for mesna; 41 g/m^2 Tavocept; cited from earlier work"}, "[7]": {"system": "some cell lines", "experiment": "In vitro cytotoxicity of mesna", "settings": "≦400 μM; unpublished data"}, "[8]": {"system": "non-small cell lung cancer", "settings": "patients greater than or equal to 65 years, carboplatin and paclitaxel chemotherapy; cited from earlier work"}, "[9]": {"target": "insulin"}, "[10]": {"target": "Recombinant human thioredoxin (Trx) (human) (UniProt P10599)"}, "[11]": {"target": "T3, human Trx with rat liver TrxR (Homo sapiens, UniProt P10599)", "T3 sequence (P10599 1-105)": "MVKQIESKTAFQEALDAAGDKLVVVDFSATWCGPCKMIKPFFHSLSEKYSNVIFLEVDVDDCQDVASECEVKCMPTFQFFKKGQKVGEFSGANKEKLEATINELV", "experiment": "TrxR/Trx insulin disulfide reduction assay (NADPH oxidation 340 nm, insulin B chain precipitation 650 nm)", "type": "biochemical", "settings": "modified Trx purified from free Tavocept or glutathione disulfide"}}, "note": "Entries after “also recorded” stand apart in the source; their conditions may differ.", "data": [{"molecule": "CCOC(=O)NC1=C(N2CC2)C(=O)C(NC(=O)OCC)=C(N2CC2)C1=O", "note": "[Diaziquone]", "values": [{"measurement": "Inhibition of Trx/TrxR system and cellular ribonucleotide reductase activity", "setting": "[1]", "result": "inhibit the Trx/TrxR system resulting in a concentration-dependent inhibition of cellular ribonucleotide reductase activity"}]}, {"molecule": "N[C@@H](CCC(=O)N[C@@H](CSSCCS(=O)(=O)O)C(=O)NCC(=O)O)C(=O)O", "note": "[MSSG, mesna-glutathione disulfide]", "values": [{"measurement": "NADPH Oxidation, Reaction A", "setting": "[2]", "result": "0.3 ± 0.02", "unit": "nmol/min/mL"}, {"measurement": "NADPH oxidation by TrxR and Trx", "setting": "[3]", "result": "increases"}]}, {"molecule": "NC(CCSSCCS(=O)(=O)O)C(=O)O", "note": "(centres unmarked) [MSSH, mesna-homocysteine disulfide]", "values": [{"measurement": "NADPH Oxidation, Reaction A", "setting": "[2]", "result": "0.0 ± 0.03", "unit": "nmol/min/mL"}, {"measurement": "NADPH oxidation by TrxR and Trx", "setting": "[3]", "result": "increases"}]}, {"molecule": "COc1cccc2c1C(=O)c1c(O)c3c(c(O)c1C2=O)C[C@@](O)(C(=O)CO)C[C@@H]3O[C@H]1C[C@H](N)[C@H](O)[C@H](C)O1", "note": "[doxorubicin]", "values": [{"measurement": "Inhibition of Trx/TrxR system and cellular ribonucleotide reductase activity", "setting": "[1]", "result": "inhibit the Trx/TrxR system resulting in a concentration-dependent inhibition of cellular ribonucleotide reductase activity"}, {"measurement": "Inhibition of TrxR", "setting": "[4]", "result": "not inhibitors of TrxR"}]}, {"molecule": "O=S(=O)([O-])CCS.[Na+]", "note": "[mesna, 2-mercapto ethane sulfonate]", "values": [{"measurement": "effect alone on microtubule protein polymerization", "setting": "[5]; in the absence of monoaquocisplatin", "result": "neither mesna nor cysteine alone (in the absence of monoaquocisplatin) had any effect; also recorded: no detectable effect"}, {"measurement": "effect on paclitaxel-induced hyperpolymerization of MTP", "setting": "[5]; mesna alone", "result": "no detectable effect"}, {"measurement": "effect on GTP promoted microtubule protein polymerization", "setting": "[5]", "result": "did not affect microtubule protein polymerization in an appreciable manner"}, {"measurement": "effect on GTP promoted microtubule protein polymerization", "setting": "[5]; listed as Mesna", "result": "does not affect"}, {"measurement": "protection against monoaquocisplatin-induced loss of microtubule protein polymerization", "setting": "[5]; preincubated with monoaquocisplatin (36 μM), mesna or cysteine 200 μM", "result": "prevented the monoaquocisplatin-induced loss; also recorded: able to protect"}, {"measurement": "Cmax", "setting": "[6]", "result": "~323", "unit": "µM"}, {"measurement": "Cytotoxicity in vitro", "setting": "[7]", "result": "can be cytotoxic to some cell lines"}]}, {"molecule": "Avastin: Avastin (bevacizumab)", "values": [{"measurement": "Survival advantage", "setting": "[8]", "result": "did not confer a survival advantage"}]}, {"molecule": "Recombinant human thioredoxin (Trx) (from UniProt P10599) (enzyme)", "values": [{"measurement": "NADPH Oxidation (nmoles/min/mL) (nmoles/min/mL)", "setting": "[9]", "result": 18}]}, {"molecule": "Tavocept-modified Prx (Prx-mesna) (from UniProt Q06830) (enzyme)", "values": [{"measurement": "rate of NADPH oxidation at 340 nm in the Prx assay (% reduction in rate)", "setting": "[10]", "result": 43}]}, {"molecule": "bovine Trx reductase (TrxR) (from UniProt O62768) (enzyme)", "values": [{"measurement": "NADPH Oxidation (nmoles/min/mL) (nmoles/min/mL)", "setting": "[9]", "result": 0.3}]}, {"molecule": "Trx-mesna: Trx covalently modified by a Tavocept-derived mesna moiety (protein, Tavocept-derived mesna mixed disulfide on Cys73 and on Cys62 or Cys69 (mass spectroscopy), Trx covalently modified by a Tavocept-derived mesna moiety) MVKQIESKTAFQEALDAAGDKLVVVDFSATWCGPCKMIKPFFHSLSEKYSNVIFLEVDVDDCQDVASECEVKCMPTFQFFKKGQKVGEFSGANKEKLEATINELV", "values": [{"measurement": "Effect on initial velocity of insulin reduction relative to apo-Trx", "setting": "[11]", "result": "inhibitory effect"}]}, {"molecule": "Trx-GSH: Trx modified by glutathione after incubation with glutathione disulfide (protein, glutathionylated (cysteine-73 in the control reactions with glutathione), Trx modified by glutathione after incubation with glutathione disulfide) MVKQIESKTAFQEALDAAGDKLVVVDFSATWCGPCKMIKPFFHSLSEKYSNVIFLEVDVDDCQDVASECEVKCMPTFQFFKKGQKVGEFSGANKEKLEATINELV", "values": [{"measurement": "Effect on initial velocity of insulin reduction relative to apo-Trx", "setting": "[11]", "result": "a clear effect on initial velocity"}]}]}
